Two molecules from patent publication US8338637B2, “Therapeutic compounds” (Allergan, Inc., priority 2006, dated 2012) can be followed below.

The target of test [1] is T1, EP4 receptors (Homo sapiens, UniProt P35408).
T1 construct: expressed in transfected cells; host or cells: HEK-293 cells (membrane fraction)
The test can be described thus: Radioligand binding, EP4 receptor. As to conditions: [3H]PGE2 competition. The method, then:
HEK-293 cells stably expressing the human or feline FP receptor, or EP1, EP2, or EP4 receptors were washed with TME buffer, scraped from the bottom of the flasks, and homogenized for 30 sec using a Brinkman PT 10/35 polytron. TME buffer was added to achieve a final 40 ml volume in the centrifuge tubes (the composition of TME is 100 mM TRIS base, 20 mM MgCl2, […]; 10N HCl is added to achieve a pH of 7.4).
The cell homogenate was centrifuged at 19000 r.p.m. for 20 min at 4° C. using a Beckman Ti-60 rotor. The resultant pellet was resuspended in TME buffer to give a final 1 mg/ml protein concentration, as determined by Biorad assay. Radioligand binding competition assays vs. [^3H-]17-phenyl PGF2[…] (5 nM) were performed in a 100 μl volume for 60 min. Binding reactions were started by adding plasma membrane fraction. The reaction was terminated by the addition of 4 ml ice-cold TRIS-HCl buffer and rapid filtration through glass fiber GF/B filters using a Brandel cell harvester. The filters were washed 3 times with ice-cold buffer and oven dried for one hour.
[^3H-] PGE2 (specific activity 180 Ci mmol) was used as the radioligand for EP receptors. [^3H] 17-phenyl PGF2α was employed for FP receptor binding studies. […] 17-phenyl PGF2α and non-specific binding determined with 10^−5M of unlabeled PGE2, or 17-phenyl PGF2α, according to receptor subtype studied.

Test [2] has as its target T2, EP2 (Homo sapiens, UniProt P43116). The experiment in a line: Competition binding, [3H]PGE2, HEK 293 cells expressing human EP2 receptors. More on the design: expressed in transfected cells; host or cells: HEK 293 cells (membranes or whole cells). As to conditions: [3H]PGE2 competition. How it is done: Competition binding experiments were performed in a medium containing Hank's balanced salt solution, Hepes 20 mM, pH 7.3, membranes (˜60 μg protein) or 2×10^5 cells from HEK 293 cells stably expressing human EP2 receptors, [^3H]PGE2 (10 nM) and various concentrations of test compounds in a total volume of 300 μl. Reaction mixtures were incubated at 23° C. for 60 min, and were filtered over Whatman GF/B filters under vacuum. Filters were washed three times with 5 ml ice-cold buffer containing 50 mM Tris/HCl (pH 7.3). Non-specific binding was estimated in the presence of excess unlabeled PGE2 (10 μM). Binding data fitted to the binding model for a single class of binding sites, using nonlinear regression analysis. IC50 values thus obtained were converted to Ki using the equation of Ki=(IC50/(1+[L]/KD) where [L] represents PGE2 concentration (10 nM) and KD the dissociation constant for [^3H]PGE2 at human EP2 receptors (40 nM). […]
The cell homogenate was centrifuged at 19000 r.p.m. for 20 min at 4° C. using a Beckman Ti-60 rotor. The resultant pellet was resuspended in TME buffer to give a final 1 mg/ml protein concentration, as determined by Biorad assay. […]
[^3H-] […] 17-phenyl PGF2α and non-specific binding determined with 10^−5M of unlabeled PGE2, or 17-phenyl PGF2α, according to receptor subtype studied.

Test [3] has as its target T2, EP2. The test can be described thus: cAMP assay, HEK-EBNA cells expressing EP2. Set-up: expressed in transfected cells; host or cells: HEK-EBNA cells. It is filed as cell-based. The method, then:
A 384-well drug plate was prepared to contain 6 test compounds, PGE2 and cAMP in 16 serial dilutions in triplicate, using a Biomek station. HEK-EBNA cells expressing a target PG receptor subtype (EP2 or EP4) were suspended in a stimulation buffer (HBSS, 0.1% BSA, 0.5 mM IBMX and 5 mM HEPES, pH 7.4) in a density of 10^4 cells/5 μl. The reaction was initiated by mixing 5 μL drug dilutions with 5 μl of HEK-EBNA cells in a well, carried out for 30 min at room temperature, and followed by the addition of 5 μl anti-cAMP acceptor beads in the control buffer with Tween-20 (25 mM NaCl, 0.03% Tween-20, 5 mM HEPES, pH7.4). After 30 min in the dark at room temperature, the mixtures were incubated with 15 μl biotinylated-cAMP/strepavidin donor beads in Lysis/Detection buffer (0.1% BSA, 0.3% Tween-20 and 5 mM HEPES, pH7.4) for 45 min at the room temperature. Fluorescence changes were read using a Fusion-alpha HT microplate reader.
(In general: cAMP levels reflect the balance of adenylyl cyclase and phosphodiesterase activity.)

T2 sequence (P43116 whole entry): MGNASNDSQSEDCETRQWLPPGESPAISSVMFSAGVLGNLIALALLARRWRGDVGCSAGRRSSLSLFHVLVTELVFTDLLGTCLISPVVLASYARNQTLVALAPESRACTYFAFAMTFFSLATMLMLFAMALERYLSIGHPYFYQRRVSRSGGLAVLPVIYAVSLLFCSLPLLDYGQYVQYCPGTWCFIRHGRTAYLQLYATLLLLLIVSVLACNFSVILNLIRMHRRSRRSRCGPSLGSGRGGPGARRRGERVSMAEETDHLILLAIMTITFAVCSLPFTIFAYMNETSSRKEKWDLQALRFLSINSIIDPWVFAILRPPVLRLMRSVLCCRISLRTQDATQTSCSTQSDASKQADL
T1 sequence (P35408 whole entry): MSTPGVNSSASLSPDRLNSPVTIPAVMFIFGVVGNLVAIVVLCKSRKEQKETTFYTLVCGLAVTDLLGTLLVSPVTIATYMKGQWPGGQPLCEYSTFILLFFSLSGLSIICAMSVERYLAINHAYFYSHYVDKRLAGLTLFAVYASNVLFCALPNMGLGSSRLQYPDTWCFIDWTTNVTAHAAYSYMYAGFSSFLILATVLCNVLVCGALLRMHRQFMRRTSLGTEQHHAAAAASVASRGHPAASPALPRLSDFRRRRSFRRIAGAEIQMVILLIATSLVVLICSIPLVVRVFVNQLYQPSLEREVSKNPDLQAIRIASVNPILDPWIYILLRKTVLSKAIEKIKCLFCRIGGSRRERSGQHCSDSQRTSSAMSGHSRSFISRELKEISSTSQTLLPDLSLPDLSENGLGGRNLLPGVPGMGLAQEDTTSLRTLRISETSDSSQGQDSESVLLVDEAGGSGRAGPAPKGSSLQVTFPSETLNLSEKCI

For `O=C(O)c1ccc(CCC[C@H]2CCC(=O)[C@@H]2COc2cc(Cl)cc(CO)c2)s1` [5-{3-[(1S,2S)-2-(3-Chloro-5-hydroxymethyl-phenoxymethyl)-3-oxo-cyclopentyl]-propyl}thiophene-2-carboxylic acid], the inhibitory constant (Ki) (commonly the equilibrium dissociation constant of an inhibitor or competing ligand from its target) in test [1] was more than 10000 nM; in test [2] it was 300 nM. Moreover, a half-maximal response in test [3] (EC50) required 457 nM.
In the case of `O=C(O)c1ccc(CCC[C@H]2C=CC(=O)[C@@H]2COc2cc(Cl)cc(CO)c2)s1` [5-{3-[(1S,5S)-5-(3-Chloro-5-hydroxymethyl-phenoxymethyl)-4-oxo-cyclopent-2-enyl]-propyl}-thiophene-2-carboxylic acid], the Ki in test [2] was 201 nM. The half-maximal effective concentration (EC50) (commonly the concentration needed to bring the measured effect to its halfway point) in test [3] worked out at 8.7 nM.
